Measurements reported in patent US20070015823A1, “Ambruticin VS compounds” (priority 2004, published 2007).
Values after ≈ are worked out from the molar mass of the structure shown. Read-outs that look alike come from different tables or passages of the source.

Columns and labels:
A. flavus ATCC 204304 = test: Broth microdilution antifungal susceptibility, NCCLS M38-A; assay type: cell-based, Aspergillus flavus; conditions: minimal concentration inhibiting >95% growth; average of at least two assays (except I-l and I-x)
Cryptococcus neoformans = test: as above; conditions: 50% growth inhibition, range = minimum and maximum of multiple assays; for MIC C. neoformans 97-14: strain 97-14; for MIC C. neoformans 11239: strain 11239; for MIC C. neoformans 11240: strain 11240
A. fumigatus ATCC 204305 = test: as above; assay type: cell-based, Aspergillus fumigatus; conditions: minimal concentration inhibiting >95% growth; average of at least two assays (except I-l and I-x)
Blastomyces dermatitidis = test: as above; assay type: cell-based
Histoplasma capsulatum = assay type: cell-based
C. immitis = test: microbe, parasite or virus in culture; assay type: cell-based, Coccidioides immitis
Candida albicans = conditions: Candida albicans
[1] = tested on: Trichophyton mentagrophytes; test: Dermatophyte broth microdilution, NCCLS M38-A; assay type: cell-based
[2] = tested on: Trichophyton interdigitale; test: Dermatophyte broth microdilution, NCCLS M38-A; assay type: cell-based
Microsporum gypseum = test: Dermatophyte broth microdilution, NCCLS M38-A; assay type: cell-based
Trichophyton rubrum = test: Dermatophyte broth microdilution, NCCLS M38-A; assay type: cell-based
Epidermophyton floccosum = test: Dermatophyte broth microdilution, NCCLS M38-A; assay type: cell-based
Microsporum canis = test: Dermatophyte broth microdilution, NCCLS M38-A; assay type: cell-based

Structure (SMILES) | MIC0 A. flavus ATCC 204304 (A. flavus ATCC 204304) [µg/mL] | MIC C. neoformans 97-14 (Cryptococcus neoformans) [µg/mL] | MIC C. neoformans 11239 (Cryptococcus neoformans) [µg/mL] | MIC C. neoformans 11240 (Cryptococcus neoformans) [µg/mL] | MIC0 A. fumigatus ATCC 204305 (A. fumigatus ATCC 204305) [µg/mL] | other results
CC[C@H]1O[C@@H](/C(C)=C/[C@H](C)/C=C/[C@H]2[C@@H](C)[C@@H]2/C=C/[C@@H]2O[C@H](CCO)C[C@H](NC)[C@H]2O)CC=C1C [I-ee, (5S,6R)-5-(methylamino)polyangi-1,6-diol] | 3 | 2 (≈ 4.22 µM) | 2 (≈ 4.22 µM) | 2 (≈ 4.22 µM) | 9.5 | 
CC[C@H]1O[C@@H](/C(C)=C/[C@H](C)/C=C/[C@H]2[C@@H](C)[C@@H]2/C=C/[C@@H]2O[C@H](CC(=O)O)C[C@H](NC)[C@H]2O)CC=C1C [Ambruticin VS-4, (5S,6R)-5-(methylamino)-6-hydroxypolyangioic acid, reference compound] | 0.47 |  |  |  | 0.60 | MIC2 B. dermatitidis 05-106 (Blastomyces dermatitidis): ≦0.15 μg/mL; MIC2 B. dermatitidis 05-186 (Blastomyces dermatitidis): ≦0.15 μg/mL; MIC2 B. dermatitidis 05-1291 (Blastomyces dermatitidis): ≦0.15 μg/mL; MIC2 H. capsulatum 05-959 (Histoplasma capsulatum): ≦0.15 μg/mL; MIC2 H. capsulatum 05-1097 (Histoplasma capsulatum): ≦0.15 μg/mL; MIC2 H. capsulatum 05-1159 (Histoplasma capsulatum): ≦0.15 μg/mL; MIC2 C. immitis 05-469 (C. immitis): ≦0.15 μg/mL; MIC2 C. immitis 05-955 (C. immitis): ≦0.15 μg/mL; MIC2 C. immitis 05-1387 (C. immitis): ≦0.15 μg/mL
CC[C@H](C)C[C@H](C)CCCCCCCCC(=O)N[C@H]1C[C@@H](O)[C@@H](NCCN)NC(=O)[C@@H]2[C@@H](O)CCN2C(=O)[C@H]([C@H](O)CCN)NC(=O)[C@H]([C@H](O)[C@@H](O)c2ccc(O)cc2)NC(=O)[C@@H]2C[C@@H](O)CN2C(=O)[C@H]([C@@H](C)O)NC1=O [Caspofungin, reference compound] |  |  |  |  |  | MIC (Candida albicans; read-out: MIC C. albicans 24433): 2 µg/mL (≈ 1.83 µM); MIC (Candida albicans; read-out: MIC C. albicans 90028): 2 µg/mL (≈ 1.83 µM)
CC[C@H]1O[C@@H](/C(C)=C/[C@H](C)/C=C/[C@H]2[C@@H](C)[C@@H]2/C=C/[C@@H]2O[C@H](CC(=O)O)C[C@H](N(C)CC3CC3)[C@H]2O)CC=C1C [I-b, (5S,6R)-5-(N-cyclopropylmethyl-methylamino)-6-hydroxypolyangioic acid] | 1.5 | 2 (≈ 3.69 µM) | 2 (≈ 3.69 µM) | 2 (≈ 3.69 µM) | 1.5 | 
CC[C@H]1O[C@@H](/C(C)=C/[C@H](C)/C=C/[C@H]2[C@@H](C)[C@@H]2/C=C/[C@@H]2O[C@H](CC(=O)O)C[C@H](N(C)C3CCCC3)[C@H]2O)CC=C1C [I-c, (5S,6R)-5-(N-cyclopentyl-methylamino)-6-hydroxypolyangioic acid] | 2.0 | 1 (≈ 1.8 µM) | 2 (≈ 3.6 µM) | 2 (≈ 3.6 µM) | 2.67 | 
C=CCNC(=O)N(C)[C@H]1C[C@@H](CC(=O)O)O[C@@H](/C=C/[C@H]2[C@H](C)[C@@H]2/C=C/[C@@H](C)/C=C(\C)[C@H]2CC=C(C)[C@@H](CC)O2)[C@@H]1O [I-q, (5S,6R)-5-(3-allyl-1-methylureido)-6-hydroxypolyangioic acid] | 32 |  |  |  | 16 | MIC0 Tm [1]: >8 µg/mL; MIC0 Ti [2]: 12.69 µg/mL; MIC0 Mg (Microsporum gypseum): >8 µg/mL; MIC0 Tr (Trichophyton rubrum): >8 µg/mL; MIC0 Ef (Epidermophyton floccosum): >8 µg/mL; MIC0 Mc (Microsporum canis): >8 µg/mL
CC[C@H]1O[C@@H](/C(C)=C/[C@H](C)/C=C/[C@H]2[C@@H](C)[C@@H]2/C=C/[C@@H]2O[C@H](CC(=O)O)C[C@H](N(C)Cc3ncc[nH]3)[C@H]2O)CC=C1C [I-y, (5S,6R)-5-(N-(2-imidazolyl)methyl-methylamino)-6-hydroxypolyangioic acid] | 9 | 0.5 (≈ 0.881 µM) | 1 (≈ 1.76 µM) | 1 (≈ 1.76 µM) | 8.5 | MIC0 Tm [1]: 4.18 µg/mL; MIC0 Mg (Microsporum gypseum): 2.51 µg/mL; MIC0 Tr (Trichophyton rubrum): 3.17 µg/mL; MIC0 Mc (Microsporum canis): 4 µg/mL; MIC B. dermatitidis Gu (Blastomyces dermatitidis): 3.13 µg/mL (≈ 5.51 µM); MIC B. dermatitidis Kr (Blastomyces dermatitidis): >12.5 µg/mL; MIC B. dermatitidis V (Blastomyces dermatitidis): >12.5 µg/mL; MIC H. capsulatum G217B (Histoplasma capsulatum): <0.19 µg/mL; MIC H. capsulatum GS20 (Histoplasma capsulatum): <0.19 µg/mL
CC[C@H]1O[C@@H](/C(C)=C/[C@H](C)/C=C/[C@H]2[C@@H](C)[C@@H]2/C=C/[C@@H]2O[C@H](CC(=O)O)C[C@H](NCCO)[C@H]2O)CC=C1C [I-ll, (5S,6R)-5-[(2-hydroxyethyl)amino]-6-hydroxypolyangioic acid] | 10 | 0.5 (≈ 0.966 µM) | 1 (≈ 1.93 µM) | 0.5 (≈ 0.966 µM) | 10 | 
CC[C@H]1O[C@@H](/C(C)=C/[C@H](C)/C=C/[C@H]2[C@@H](C)[C@@H]2/C=C/[C@@H]2O[C@H](CC(=O)O)C[C@H](NC(C)C)[C@H]2O)CC=C1C [I-kk, (5S,6R)-5-(isopropylamino)-6-hydroxypolyangioic acid] | 1.1 | 0.25 (≈ 0.485 µM) | 0.125 (≈ 0.242 µM) | 0.0625 (≈ 0.121 µM) | 1 | MIC B. dermatitidis Gu (Blastomyces dermatitidis): 12.5 µg/mL (≈ 24.2 µM); MIC B. dermatitidis Kr (Blastomyces dermatitidis): >12.5 µg/mL; MIC B. dermatitidis V (Blastomyces dermatitidis): >12.5 µg/mL; MIC H. capsulatum G217B (Histoplasma capsulatum): <0.19 µg/mL; MIC H. capsulatum GS20 (Histoplasma capsulatum): <0.19 µg/mL
CC[C@H]1O[C@@H](/C(C)=C/[C@H](C)/C=C/[C@H]2[C@@H](C)[C@@H]2/C=C/[C@@H]2O[C@H](CC(=O)O)C[C@H](NCC(F)F)[C@H]2O)CC=C1C [I-ggg, (5S,6R)-5-(2,2-difluoroethyl)amino-6-hydroxypolyangioic acid] | 8 |  |  |  | 4 | 
CC[C@H]1O[C@@H](/C(C)=C/[C@H](C)/C=C/[C@H]2[C@@H](C)[C@@H]2/C=C/[C@@H]2O[C@H](CC(=O)O)CC(=O)[C@H]2O)CC=C1C [5-keto ambruticin S, (6R)-5-Oxo-6-hydroxypolyangioic acid, reference compound] | 1.0 | 0.5 (≈ 1.06 µM) | 2 (≈ 4.23 µM) | 2 (≈ 4.23 µM) | 2.0 | 
CC[C@H]1O[C@@H](/C(C)=C/[C@H](C)/C=C/[C@H]2[C@@H](C)[C@@H]2/C=C/[C@@H]2O[C@H](CCO)C[C@H](N(C)C(C)C)[C@H]2O)CC=C1C [I-oo, (5S,6R)-5-(N-isoproyl-methylamino)polyangi-1,6-diol] | 2 |  |  |  | 32 | MIC B. dermatitidis Gu (Blastomyces dermatitidis): 0.39 µg/mL (≈ 0.756 µM); MIC B. dermatitidis Kr (Blastomyces dermatitidis): >12.5 µg/mL; MIC B. dermatitidis V (Blastomyces dermatitidis): >12.5 µg/mL; MIC H. capsulatum G217B (Histoplasma capsulatum): <0.19 µg/mL; MIC H. capsulatum GS20 (Histoplasma capsulatum): <0.19 µg/mL
CC[C@H]1O[C@@H](/C(C)=C/[C@H](C)/C=C/[C@H]2[C@@H](C)[C@@H]2/C=C/[C@@H]2O[C@H](CCO)C[C@H](N(C)C)[C@H]2O)CCC1C (some centres unmarked) [IV-c] | 2 |  |  |  | 2 | 
CC[C@H]1O[C@@H](/C(C)=C/[C@H](C)/C=C/[C@H]2[C@@H](C)[C@@H]2/C=C/[C@@H]2O[C@H](CC(=O)O)C[C@H](NC(=O)OC)[C@H]2O)CC=C1C [I-bb, (5S,6R)-5-methoxycarbonylamino-6-hydroxypolyangioic acid] | 32 |  |  |  | 16 | 
CC[C@H]1O[C@@H](/C(C)=C/[C@H](C)/C=C/[C@H]2[C@@H](C)[C@@H]2/C=C/[C@@H]2O[C@H](CC(=O)O)C[C@H](N(C)C(=O)OCC(C)C)[C@H]2O)CC=C1C [I-r, (5S,6R)-5-[N-methyl(isobutoxycarbonylamino)]-6-hydroxypolyangioic acid] | >32 |  |  |  | >32 | 
CC[C@H]1O[C@@H](/C(C)=C/[C@H](C)/C=C/[C@H]2[C@@H](C)[C@@H]2/C=C/[C@@H]2O[C@H](CC(=O)NCCO)C[C@H](N(C)C)[C@H]2O)CC=C1C [I-rr, (5S,6R)-5-dimethylamino-6-hydroxy-N-(2-hydroxyethyl)polyangiamide] | 2 |  |  |  | 4 | 
CC1=CC[C@H](/C(C)=C/[C@H](C)/C=C/[C@H]2[C@@H](C)[C@@H]2/C=C/[C@@H]2O[C@H](CC(=O)O)C[C@H](N(C)C)[C@H]2O)O[C@@H]1C [III-a, 24-norambruticin VS-3] | 1.6 |  |  |  | 0.71 | 
CC[C@H]1O[C@@H](/C(C)=C/[C@H](C)/C=C/[C@H]2[C@@H](C)[C@@H]2/C=C/[C@@H]2O[C@H](CC(=O)O)C[C@H](NC(C)C)[C@H]2O)CCC1C (some centres unmarked) [IV-d] | 0.88 |  |  |  | 2.5 | 
CC[C@H]1O[C@@H](/C(C)=C/[C@H](C)/C=C/[C@H]2[C@@H](C)[C@@H]2/C=C/[C@@H]2O[C@H](CCO)C[C@H](N(C)CCO)[C@H]2O)CC=C1C [I-nn, (5S,6R)-5-[N-(2-hydroxyethyl)methylamino]polyangi-1,6-diol] | 4 |  |  |  | 32 | MIC B. dermatitidis Gu (Blastomyces dermatitidis): >12.5 µg/mL; MIC B. dermatitidis Kr (Blastomyces dermatitidis): >12.5 µg/mL; MIC B. dermatitidis V (Blastomyces dermatitidis): >12.5 µg/mL; MIC H. capsulatum G217B (Histoplasma capsulatum): <0.19 µg/mL; MIC H. capsulatum GS20 (Histoplasma capsulatum): <0.19 µg/mL
